Measurements taken from US20080003438A1, “Heterocyclic siloxanes for use in biocidal coatings and materials” (Auburn University, priority 2002, published 2008).

Columns and labels:
[1] = Stability test during dry storage of coated cotton samples; assay type: physicochemical
Procedure: A stability test during dry storage was also conducted on cotton samples coated with 3-triethoxysilylpropyl-5,5-dimethylhydantoin. One half of the samples were coated in a bath containing 8% of the 3-triethoxysilylpropyl-5,5-dimethylhydantoin in 50% ethanol in water solution. The other half were treated in the same manner except that KSCN was added to the treatment bath as described above. The chlorination conditions and analytical method of measuring chlorine loadings were the same as discussed above. The samples were stored in plastic bags at ambient temperature; the bags were not air-tight. The average chlorine loading for the samples treated in the presence of KSCN declined from 0.776% to 0.680% over a period of 50 days. For the samples not treated in the presence of KSCN, the decline was from 0.620% to 0.540% over the same 50 day period. It can be concluded that the coated cotton samples were fairly stable to loss of chlorine in dry storage.

[2] = tested on: Candida albicans (ATCC # 102301); assay: Anti-yeast activity of halogen charged coated surfaces; assay type: cell-based
Procedure: Soft and hard surfaces were treated by exposure to solutions of 3-triethoxysilylpropyl-5,5-dimethylhydantoin prepared as described in Example 1. Challenge inocula for determination of activity directed against yeasts consisted of suspensions of Candida albicans (ATCC # 102301) harvested from PDA plates. Procedures for preparation of halogen charged surfaces, plates, and the exposure of test articles were as described in Example 11. Recovery of viable Candida was accomplished by the plate dilution method on PDA.

[3] = Laundry washing cycles (AATCC Test Method 61, Test 2A), chlorine loading after washing; assay type: physicochemical; conditions: for Average Chlorine Loading %: cotton
Procedure: Finally, a wash test was performed on swatches of cotton containing the monomer 3-triethoxysilylpropyl-5,5-dimethylhydantoin coating and the polysiloxane coating, each chlorinated and unchlorinated, for comparison purposes. Two treatment baths were prepared, one containing an 8% solution of 3-triethoxysilylpropyl-5,5-dimethylhydantoin in a 50% solution of ethanol in water, the other containing an 8% solution of siloxane polymer prepared as described above in a 66.7% solution of ethanol in water. Identical cotton swatches were soaked in the two baths for 2.5 minutes at ambient temperature, cured in air at 130° C. for 20 minutes, soaked in 1.5% liquid detergent at ambient temperature for 15 minutes, rinsed thoroughly with water, and dried in air at 50° C. for 30 minutes. Then one-half of the swatches of each type were chlorinated by soaking them in 5% CLOROX at ambient temperature for 45 minutes. These chlorinated samples were rinsed thoroughly with water and dried in air at 50° C. for 30 minutes to remove all occluded free chlorine. Iodometric/thiosulfate titrations were performed on representative samples to determine initial chlorine loadings. The average chlorine loading for the silane monomer-coated samples was 0.61%; for the siloxane polymer-coated samples, the average chlorine loading was 0.40%. Then all types of coated swatches were subjected to laundry washing cycles using AATCC Test Method 61 (Test 2A Procedure). Samples were evaluated after 5, 10, and 50 washing cycles for retention of the coatings. Those samples not chlorinated before washing were chlorinated by the procedure described above in order to assess how much chlorine could be loaded after variable numbers of washing cycles. Those chlorinated before washing were divided into two groups with half being assessed for chlorine loading without rechlorination, the other half being rechlorinated and then assessed for chlorine loading. Three observations are clearly evident from the data in Table 3. First, both the silane and the siloxane coatings are partially lost upon successive washings. Second, prechlorination reduces the rate of loss, probably due to increasing the hydrophobicity of the surface, thus reducing the rate of hydrolysis loss of the siloxane coatings. Third, the siloxane coating, which is not chlorinated to as high a level as the silane one upon initial chlorination, is lost at a slower rate than is the silane coating. For all of the coatings, at least partial biocidal efficacy would be regenerated upon rechlorination after 50 washing cycles. Most probably, a low concentration of bleach added to washing cycles should maintain biocidal activity of the cotton material for the lifetime of the material.
Finally, 100% cotton fabric swatches were tested. In this case 10 mL of the refluxed solution of polymer (the solid was not isolated) were mixed with 100 mL of a 50% ethanol/50% water solution in a beaker. The cotton swatches (7 g) were soaked in the solution for 3 minutes, then partially dried in air at ambient temperature, and then cured at 150° C. for 30 minutes. After soaking in 5% CLOROX for 20 minutes, the swatches were rinsed and dried at ambient temperature. The average chlorine loading of several swatches was determined by iodometric/thiosulfate titration to be 0.438% Cl. Then the other treated swatches were subjected to laundry washing cycles using AATCC Test Method 61 (Test 2A Procedure) followed by analytical determination of chlorine loading as a function of the number of wash cycles. After 5, 10, and 50 wash cycles the chlorine loadings averaged 0.282%, 0.279%, and 0.165%, respectively.

[4] = tested on: Proteus mirabilis bacteria; assay: Odor control: ammonia in head space above inoculated wood pulp pads; assay type: cell-based; conditions: coated, chlorinated wood pulp pads, 37° C., six hours
Procedure: 3-triethoxysilylpropyl-5,5-dimethylhydantoin, prepared as described in Example 1, was used to treat non-woven pads consisting of 1 gram of a wood pulp matrix such as is used in diapers and incontinence products. A 5% solution prepared in a distilled water and ethanol 1:1 mixture was applied to pads of the wood pulp fibers, and they were then left to soak for 5 minutes. Excess solution was vacuum suctioned from the pads, which were then dried in an oven at 90° C. for two hours. Untreated pads were also subjected to exposure to water and ethanol as controls, and were similarly dried.
Dried coated test samples and uncoated control pads were then treated by exposure to 10% sodium hypochlorite solution for 15 minutes, after which they were rinsed exhaustively with distilled water, and then vacuum dried to remove any unbound, free chlorine. Additional control pads consisted of wood pulp coated with 3-triethoxysilylpropyl-5,5-dimethylhydantoin but not exposed to the hypochlorite bleach charge. […]
All test and control pads were then exposed to an inoculum designed to generate ammonia odor as a result of bacterial action on urine, simulating events in an infant or adult human diaper. […] At the end of this period the samples were removed from the incubator, and the amount of ammonia gas in the head space above each pad was measured as an indicator of the degree of odor generated in the urine. […]

Structure (SMILES): CCO[Si](CCCN1C(=O)NC(C)(C)C1=O)(OCC)OCC [3-triethoxysilylpropyl-5,5-dimethylhydantoin]
- average chlorine loading ([1]; cotton not treated in presence of KSCN, after 50 days in plastic bags at ambient temperature): 0.540%
- average chlorine loading ([1]; cotton not treated in presence of KSCN, start of dry storage): 0.620%
- average chlorine loading ([1]; cotton treated in presence of KSCN, after 50 days in plastic bags at ambient temperature): 0.680%
- average chlorine loading ([1]; cotton treated in presence of KSCN, start of dry storage): 0.776%
- reduction in viable yeasts ([2]; cotton surfaces, two hours of contact): 5 logs
- reduction in viable yeasts ([2]; hard surfaces, 6 hours of contact): up to 4 logs
- reduction in viable yeasts ([2]; polyester, 24 hours): 4 logs
- bound chlorine retained ([3]; cotton cloth, after 50 wash cycles): about 34%
- Average Chlorine Loading % ([3]; chlorination before washing No, after washing Yes, 5 washing cycles): 0.26%
- Average Chlorine Loading % ([3]; chlorination before washing No, after washing Yes, 10 washing cycles): 0.15%
- Average Chlorine Loading % ([3]; chlorination before washing No, after washing Yes, 50 washing cycles): 0.03%
- Average Chlorine Loading % ([3]; chlorination before washing Yes, after washing No, 5 washing cycles): 0.42%
- Average Chlorine Loading % ([3]; chlorination before washing Yes, after washing No, 10 washing cycles): 0.41%
- Average Chlorine Loading % ([3]; chlorination before washing Yes, after washing No, 50 washing cycles): 0.10%
- Average Chlorine Loading % ([3]; chlorination before washing Yes, after washing Yes, 5 washing cycles): 0.394%
- Average Chlorine Loading % ([3]; chlorination before washing Yes, after washing Yes, 10 washing cycles): 0.388%
- Average Chlorine Loading % ([3]; chlorination before washing Yes, after washing Yes, 50 washing cycles): 0.133%
- odor detected by the human nose [4]: no detectable odor whatsoever
- ammonia in the head space above the pads ([4]; urine + urea + P. mirabilis, lower limit of detection 0.25 ppm): < 0.25 ppm
